Experimental data as given in US20080311589A1, “METHOD OF HIGH-THROUGHPUT SCREENING OF MOLECULES AND COMPOUNDS FOR THEIR EFFECTS ON BIOLOGICAL AND CHEMICAL PROCESSES” (priority 1999, published 2008).

System: Mv1Lu mink lung epithelial cells
Test: 384 well anti-BrdU cytoblot
Format: cell-based
Settings: 384-well plate; TGF-β 16 hours, then 10 μM BrdU 16 hours
From the text: FIG. 1. An immunodetection assay for DNA synthesis in high density arrays of mammalian cells. (a) Cartoon depiction of an anti-BrdU cytoblot. The thymine analog 5-bromodeoxyuridine (BrdU) is incorporated into the DNA of cells that are actively replicating their DNA. The cells are in the well, and BrdU is detected with a two step antibody binding procedure. The second antibody is conjugated to the enzyme horseradish peroxidase. In the presence of the chemiluminescent substrate luminol as well as hydrogen peroxide, light of wavelength 428 nm is generated. The light emission can be detected by exposing the plate to film. (b) A cytoblot can detect TGF-β's ability to prevent BrdU incorporation in mink lung epithelial cells. 2000 Mv1Lu mink lung epithelial cells were seeded in each well of a white, opaque 384 well plate. The cells were seeded in the indicated concentrations of TGF-β in 50 μL of DMEM with 1% fetal bovine serum (FBS), 100 units/mL penicillin G sodium, 100 μg/mL streptomycin sulfate and 100 μM each of the amino acids alanine, aspartic acid, glutamine, glycine, asparagine and proline (referred to throughout as 1% mink medium) and allowed to incubate at 37° C. with 5% CO2. After 16 hours, 5.5 μL of 100 μM BrdU in 1% mink medium was added to each well, for a final concentration of 10 μM BrdU. The cells were incubated at 37° C. with 5% CO2 for an additional 16 hours and then an anti-BrdU cytoblot protocol was performed (see protocol). Wells shown are magnified 4×.
FIG. 2. A cytoblot can detect the ability of numerous antiproliferative agents to inhibit BrdU incorporation. 2000 Mv1Lu mink lung epithelial cells were seeded in each well of a white, opaque 384 well plate. The cells were seeded in 40 μL of 1% mink media and immediately 40 μL of 2× stocks of the reagents shown was added to each well and the cells were allowed to incubate at 37° C. with 5% CO2. After 24 hours, 9 μL of 100 μM BrdU in 1% mink medium was added to each well, for a final concentration of 10 μM BrdU. The cells were incubated at 37° C. with 5% CO2 for an additional 16 hours and then an anti-BrdU cytoblot protocol was performed (see protocol). Wells shown are magnified 2.5×.
The ability of the cytoblot assay to detect changes in DNA synthesis was tested by measuring the incorporation of 5-bromodeoxyuridine (BrdU, Sigma Corporation, St. Louis, Mo., Cat.# B9285) into DNA in the presence or absence of the anti-mitogen transforming growth factor β (TGF-β). Mink lung cells, which are responsive to TGF-β, were seeded into each well of an opaque, white 384-well plate. The cells were subsequently treated with varying concentrations of TGF-β for 16 hours and then with 10 μM BrdU for 16 hours. […] The following protocols provide experimental detail. […]

Which BrdU incorporation does the source give for “TGF-β: anti-mitogen transforming growth factor β, multifunctional polypeptide signaling factor” here?
The BrdU incorporation was “effectively prevented BrdU incorporation”.
